Source: publication PMC12696090, “Enzyme engineering of cytochrome P450 RosC provides mechanistic insights into factors controlling iterative oxidation” (Applied Microbiology and Biotechnology, 2025)

Columns and labels:
[1] = molecular target: T1, RosC lacking the N-terminal 21 residues (Micromonospora rosaria, UniProt I7HHD0); test: X-ray crystal structure; type: binding; settings: 2.3 Å; active site, C-20 oriented toward heme iron
T1 construct: N-terminal 21 residues deleted, His-tag cut with thrombin, expressed in E. coli BL21(DE3); crystallization construct

NHis-RosC [2] = molecular target: T2, NHis-RosC (Micromonospora rosaria, UniProt I7HHD0); test: spectral substrate-binding assay (difference spectra); settings: 50 mM Tris-HCl pH 7.5, 20% glycerol, room temperature, 1 μM enzyme; Type II spectral change
T2 construct: full-length, N-terminal His-tag kept (pET28b), expressed in E. coli BL21(DE3)

NHis-RosC [3] = molecular target: T3, NHis-RosC (Micromonospora rosaria, UniProt I7HHD0, P107S/L176Q); test: as above; settings: 50 mM Tris-HCl pH 7.5, 20% glycerol, room temperature, 1 μM enzyme; Type II spectral change
T3 construct: full-length, N-terminal His-tag kept (pET28b), expressed in E. coli BL21(DE3)

Row | SMILES | X-ray crystal structure [1] | Kd (NHis-RosC [2]) | Kd (NHis-RosC [3])
1 | CC[C@H]1OC(=O)C[C@@H](O)[C@H](C)[C@@H](O[C@@H]2O[C@H](C)C[C@H](N(C)C)[C@H]2O)[C@@H](CCO)C[C@@H](C)C(=O)/C=C/[C@]2(C)O[C@H]2[C@@H]1C [RS-A] | crystal structures of the RosC in complex with RS-A and RS |  | 
2 | CC[C@H]1C[C@@H](C)C(=O)/C=C/[C@]2(C)O[C@H]2[C@H](C)[C@@H](CC)OC(=O)C[C@@H](O)[C@H](C)[C@H]1O[C@@H]1O[C@H](C)C[C@H](N(C)C)[C@H]1O [RS-B] | The crystal structure of RosC bound to RS-B | 1.4 ± 0.3 µM | 1 ± 0.2 µM
3 | CC[C@H]1OC(=O)C[C@@H](O)[C@H](C)[C@@H](O[C@@H]2O[C@H](C)C[C@H](N(C)C)[C@H]2O)[C@@H](CC=O)C[C@@H](C)C(=O)/C=C/[C@]2(C)O[C@H]2[C@@H]1C [RS] | crystal structures of the RosC in complex with RS-A and RS |  | 
